Results taken from patent US10980781B2, “6-amino-2,4-dihydropyrano [2,3-c] pyrazoles and methods of use” (Purdue Research Foundation, priority 2017, dated 2021).

Target: USP7 (Homo sapiens (Human), UniProt Q93009)
Assay: USP7 inhibition assay with Ub-Rho 110 substrate (fluorescence progress curves)
Assay type: biochemical
Settings: for IC50: 11 compound concentrations, two-fold serial dilutions, 1 nM USP7, 200 nM Ub-Rho 110
Method: Each assay was measured in triplicate. […] All reactions contained a final concentration of 3% DMSO. […] The percent inhibition was calculated using Equation (1).
The assay design was identical to as described above. The percent inhibition was calculated using Equation 1 and fit to Equation 2 by use of the Enzyme Kinetics Module of Sigma Plot (v13:Systat Software Inc.), to determine the IC50 value.

[1] = 100 μM compound, 1 nM USP7, 200 nM Ub-Rho 110, 3% DMSO, triplicate

Sequence of USP7 (Q93009 whole entry): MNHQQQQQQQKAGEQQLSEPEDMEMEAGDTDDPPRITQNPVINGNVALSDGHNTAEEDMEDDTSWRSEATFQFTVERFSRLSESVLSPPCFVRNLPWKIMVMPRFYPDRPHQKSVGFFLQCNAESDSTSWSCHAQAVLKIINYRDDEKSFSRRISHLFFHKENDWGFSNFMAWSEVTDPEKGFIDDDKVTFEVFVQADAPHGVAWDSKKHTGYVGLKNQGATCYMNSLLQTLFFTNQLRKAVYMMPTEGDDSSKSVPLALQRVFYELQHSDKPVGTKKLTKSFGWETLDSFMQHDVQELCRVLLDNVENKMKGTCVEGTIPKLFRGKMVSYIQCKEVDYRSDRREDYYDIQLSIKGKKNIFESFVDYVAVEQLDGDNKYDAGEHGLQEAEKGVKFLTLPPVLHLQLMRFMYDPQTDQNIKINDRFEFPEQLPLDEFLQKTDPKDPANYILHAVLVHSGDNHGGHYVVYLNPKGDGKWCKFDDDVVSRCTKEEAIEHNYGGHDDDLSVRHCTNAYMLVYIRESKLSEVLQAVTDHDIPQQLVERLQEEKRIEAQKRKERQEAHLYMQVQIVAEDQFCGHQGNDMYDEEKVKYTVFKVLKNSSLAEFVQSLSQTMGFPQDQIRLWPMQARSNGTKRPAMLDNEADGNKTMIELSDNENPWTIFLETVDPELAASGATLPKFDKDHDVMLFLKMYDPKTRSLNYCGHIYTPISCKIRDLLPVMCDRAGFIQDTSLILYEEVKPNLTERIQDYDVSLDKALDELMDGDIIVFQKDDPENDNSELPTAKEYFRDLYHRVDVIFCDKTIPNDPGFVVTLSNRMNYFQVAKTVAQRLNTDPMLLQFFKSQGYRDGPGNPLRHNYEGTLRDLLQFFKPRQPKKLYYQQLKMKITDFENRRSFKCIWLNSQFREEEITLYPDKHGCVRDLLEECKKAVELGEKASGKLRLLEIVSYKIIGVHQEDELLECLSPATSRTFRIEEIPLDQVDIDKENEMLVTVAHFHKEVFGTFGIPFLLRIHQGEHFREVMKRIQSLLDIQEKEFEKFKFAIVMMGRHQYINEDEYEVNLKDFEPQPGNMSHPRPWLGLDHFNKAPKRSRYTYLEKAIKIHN

| SMILES | inhibition at 100 µM [1] | % inhibition @100 μM [1] | IC50 |
| --- | --- | --- | --- |
| N#CC1=C(N)Oc2n[nH]c(-c3cccs3)c2C1c1ccc(Cl)cc1 (stereo not drawn) [Compound 6f, 6-Amino-4-(4-chlorophenyl)-3-(thiophen-2-yl)-2,4-dihydropyrano[2,3-c]pyrazole-5-carbonitrile] | 31 ± 6% |  |  |
| N#CC1=C(N)Oc2n[nH]c(-c3cccs3)c2C1c1ccc2c(c1)-c1ccccc1C2 (stereo not drawn) [Compound 6h, 6-amino-4-(9H-fluoren-3-yl)-3-(thiophen-2-yl)-2,4-dihydropyrano [2,3-c]pyrazole-5-carbonitrile] | 38 ± 6% |  |  |
| C=CCN1CCc2ccc(C3C(C#N)=C(N)Oc4n[nH]c(-c5cccs5)c43)cc21 (stereo not drawn) [Compound 6i, 4-(1-Allylindolin-6-yl)-6-amino-3-(thiophen-2-yl)-2,4-dihydropyrano[2,3-c]pyrazole-5-carbonitrile] | 63 ± 1% |  |  |
| N#CC1=C(N)Oc2n[nH]c(-c3cccs3)c2C1c1cc(Br)c(OCc2ccccc2)c(Br)c1 (stereo not drawn) [Compound 6l, 6-amino-4-(4-(benzyloxy)-3,5-dibromophenyl)-3-(thiophen-2-yl)-2,4-dihydropyrano[2,3-c]pyrazole-5-carbonitrile] | 26 ± 3% |  |  |
| CCCOc1ccc(C2C(C#N)=C(N)Oc3n[nH]c(-c4cccs4)c32)cc1Br (stereo not drawn) [Compound 6m, 6-Amino-4-(3-bromo-4-propoxyphenyl)-3-(thiophen-2-yl)-2,4-dihydropyrano [2,3-c]pyrazole-5-carbonitrile] | 32 ± 5% |  |  |
| N#CC1=C(N)Oc2n[nH]c(-c3cccs3)c2C1c1ccc(N=[N+]=[N-])c(I)c1 (stereo not drawn) [Compound 6p, 6-Amino-4-(4-azido-3-iodophenyl)-3-(thiophen-2-yl)-2,4-dihydropyrano[2,3-c]pyrazole-5-carbonitrile] | 62 ± 20% |  |  |
| Cc1ccc(C2C(C#N)=C(N)Oc3n[nH]c(-c4ccc(Cl)cc4)c32)cc1C (stereo not drawn) [Compound 7g, 6-Amino-3-(4-chlorophenyl)-4-(3,4-dimethylphenyl)-2,4-dihydropyrano[2,3-c]pyrazole-5-carbonitrile] | 34 ± 6% |  |  |
| COc1ccc(C2C(C#N)=C(N)Oc3n[nH]c(-c4ccc(Cl)cc4)c32)cc1I (stereo not drawn) [Compound 7i, 6-Amino-3-(4-chlorophenyl)-4-(3-iodo-4-methoxyphenyl)-2,4-dihydropyrano [2,3-c]pyrazole-5-carbonitrilem] |  | 69 ± 3% | 15 ± 2 µM |
| COc1ccc(C2C(C#N)=C(N)Oc3n[nH]c(-c4cc(C)sc4C)c32)cc1Br (stereo not drawn) [Compound 7n, 6-Amino-4-(3-bromo-4-methoxyphenyl)-3-(2,5-dimethylthiophen-3-yl)-2,4-dihydropyrano[2,3-c]pyrazole-5-carbonitrile] | 32 ± 3% |  |  |
| COc1ccc(C2C(C#N)=C(N)Oc3n[nH]c(-c4cc(C)sc4C)c32)cc1I (stereo not drawn) [Compound 7o, 6-Amino-3-(2,5-dimethylthiophen-3-yl)-4-(3-iodo-4-methoxyphenyl)-2,4-dihydropyrano[2,3-c]pyrazole-5-carbonitrile] | 29 ± 6% |  |  |
| COc1ccc(C2C(C#N)=C(N)Oc3c2c(-c2cccs2)nn3C)cc1Br (stereo not drawn) [Compound 9a, 6-Amino-4-(3-bromo-4-methoxyphenyl)-1-methyl-3-(thiophen-2-yl)-1,4-dihydropyrano[2,3-c]pyrazole-5-carbonitrile] | 0% |  |  |
| COc1ccc(C2C(C#N)=C(N)Oc3c2c(-c2cccs2)nn3C)cc1I (stereo not drawn) [Compound 9b, 6-Amino-4-(3-iodo-4-methoxyphenyl)-1-methyl-3-(thiophen-2-yl)-1,4-dihydropyrano[2,3-c]pyrazole-5-carbonitrile] | 0% |  |  |
| CCOCNC1=C(C#N)C(c2ccc(OC)c(Br)c2)c2c(-c3cccs3)nn(C)c2O1 (stereo not drawn) [Compound 11, 4-(3-Bromo-4-methoxyphenyl)-6-((ethoxymethyl)amino)-1-methyl-3-(thiophen-2-yl)-1,4-dihydropyrano [2,3-c]pyrazole-5-carbonitrile] | 0% |  |  |
| CNC1=C(C#N)C(c2ccc(OC)c(Br)c2)c2c(n[nH]c2-c2cccs2)O1 (stereo not drawn) [Compound 13, 4-(3-Bromo-4-methoxyphenyl)-6-(methylamino)-3-(thiophen-2-yl)-2,4-dihydropyrano[2,3-c]pyrazole-5-carbonitrile] | 47 ± 1% |  |  |
| COc1ccc(C2C(C#N)=C(N)Oc3nn(C(C)=O)c(-c4cccs4)c32)cc1Br (stereo not drawn) [Compound 14, 2-Acetyl-6-amino-4-(3-bromo-4-methoxyphenyl)-3-(thiophen-2-yl)-2,4-dihydropyrano[2,3-c]pyrazole-5-carbonitrile] | 85 ± 2% |  | 0.53 ± 0.05 µM |
| COc1ccc(C2C(C#N)=COc3n[nH]c(-c4cccs4)c32)cc1Br (stereo not drawn) [Compound 15, 4-(3-Bromo-4-methoxyphenyl)-3-(thiophen-2-yl)-2,4-dihydropyrano [2,3-c]pyrazole-5-carbonitrile] | 0% |  |  |
